Patent US6468555B1, “Pesticidal compositions” (Sumitomo Chemical Company, Limited, priority 1999, dated 2002)

Experiments:
Aphis gossypii = assay: Pesticidal test against Aphis gossypii on potted cabbage plants (foliar spray); format: in vivo; conditions: 2.0 ppm active ingredient, 20 adults set free per pot; for Number of surviving aphids per pot After 3 days: 3 days after spraying; for Number of surviving aphids per pot After 6 days: 6 days after spraying
Text: Pesticidal Test Against Aphis gossypii
Twenty adults of Aphis gossypii were set free on three-leafed cabbage plants in pots. These plants were uniformly sprayed using a spray gun with a water dilution in a prescribed concentration of a commercial product of compound A (trade name: Lano 10EC; available from Sumitomo Chemical Co., Ltd.), a commercial product of compound B (trade name: Baroque Flowable; available from Yashima Chemical Industry Co., Ltd.), or a mixture of the commercial product of compound A and the commercial product of compound B. After air drying, the pots were placed in a greenhouse. On a predetermined day after the application, the cabbage plants were examined for the number of aphids surviving thereon.

Bemisia argentifolii = assay: Pesticidal test against Bemisia argentifolii first-instar nymphs on cabbage seedlings (foliar spray); format: in vivo; conditions: 16 days after application
Text: Pesticidal Test Against Bemisia argentifolii
Cabbage seedlings infested with first-instar nymphs of Bemisia argentifollii were uniformly sprayed using a spray gun with a water dilution in a prescribed concentration of a commercial product of compound A (trade name: Lano 10EC; available from Sumitomo Chemical Co., Ltd.), a commercial product of compound B (trade name: Baroque Flowable; available from Yashima Chemical Industry Co., Ltd.), or a mixture of the commercial product of compound A and the commercial product of compound B. After air drying, each of the cabbage seedlings was placed in a net cage and kept in a greenhouse. After 16 days from the application, the number of emergent adults was determined.

Row | SMILES | Number of surviving aphids per pot After 3 days (Aphis gossypii) | Number of surviving aphids per pot After 6 days (Aphis gossypii) | Number of emergent adults (Bemisia argentifolii; 0.2 ppm, 108 nymphs used) | Number of emergent adults (Bemisia argentifolii; 0.4 ppm, 125 nymphs used)
1 | CC(COc1ccc(Oc2ccccc2)cc1)Oc1ccccn1 (stereo not drawn) [Compound A, 4-phenoxyphenyl 2-(2-pyridyloxy)propyl ether] | 45 | 11 | 13 | 
2 | CCOc1cc(C(C)(C)C)ccc1C1COC(c2c(F)cccc2F)=N1 (stereo not drawn) [Compound B, 2-(2,6-difluorophenyl)-4-(2-ethoxy-4-tert-butyl-phenyl)-2-oxazoline] | 11 | 25 |  | 51
